Entries after “also recorded” stand apart in the source; their conditions may differ.
Tests used:
[1] = target: T1, parathyroid cell calcium receptor (Bos taurus, UniProt P35384); assay: cell-based; type: cell-based
T1 sequence (P35384 21-1085 limits assumed): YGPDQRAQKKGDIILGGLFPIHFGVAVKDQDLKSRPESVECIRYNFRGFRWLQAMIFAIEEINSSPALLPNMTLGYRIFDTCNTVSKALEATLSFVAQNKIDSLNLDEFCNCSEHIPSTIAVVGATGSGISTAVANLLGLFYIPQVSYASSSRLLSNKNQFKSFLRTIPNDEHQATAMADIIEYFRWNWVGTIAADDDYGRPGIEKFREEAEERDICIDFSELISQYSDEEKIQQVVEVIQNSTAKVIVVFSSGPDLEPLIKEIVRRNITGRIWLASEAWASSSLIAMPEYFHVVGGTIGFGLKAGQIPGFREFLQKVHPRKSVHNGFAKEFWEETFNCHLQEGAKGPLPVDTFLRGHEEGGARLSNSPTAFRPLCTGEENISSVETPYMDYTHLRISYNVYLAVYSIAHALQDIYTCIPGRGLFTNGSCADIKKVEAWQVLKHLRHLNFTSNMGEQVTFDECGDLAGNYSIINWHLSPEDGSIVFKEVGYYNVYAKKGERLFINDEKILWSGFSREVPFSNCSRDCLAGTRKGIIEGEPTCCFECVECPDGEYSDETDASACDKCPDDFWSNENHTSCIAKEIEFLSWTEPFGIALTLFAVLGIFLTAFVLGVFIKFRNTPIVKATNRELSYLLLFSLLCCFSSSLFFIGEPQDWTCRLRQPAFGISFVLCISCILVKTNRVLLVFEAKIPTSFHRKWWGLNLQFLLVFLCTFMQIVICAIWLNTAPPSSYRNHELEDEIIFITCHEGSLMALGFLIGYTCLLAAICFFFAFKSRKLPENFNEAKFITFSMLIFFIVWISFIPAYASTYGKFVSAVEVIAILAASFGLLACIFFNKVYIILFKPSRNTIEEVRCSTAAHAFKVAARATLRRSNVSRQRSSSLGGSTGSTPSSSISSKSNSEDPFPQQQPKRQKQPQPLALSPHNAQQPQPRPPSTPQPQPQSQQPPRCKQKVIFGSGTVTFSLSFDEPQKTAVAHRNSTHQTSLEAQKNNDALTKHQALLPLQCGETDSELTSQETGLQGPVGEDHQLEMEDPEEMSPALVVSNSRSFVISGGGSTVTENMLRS

[2] = test system: parathyroid cell calcium receptor; assay: Cl^- current in Xenopus oocytes injected with (bovine) parathyroid cell mRNA; type: cell-based; settings: 30 μM
Description: Following incubation, an oocyte was placed into a 100-μl plastic chamber and superfused with MBS at a flow rate of 0.5 ml/min using a peristaltic pump. Test molecules or inorganic polycations were added by rapidly moving the tubing into different buffers. Recording and current passing electrodes were constructed from thin-wall capillary tubing pulled to a resistance of 1-3 Mohms and filled with 3M KCl. […] Currents were recorded directly onto a strip chart recorder.

[3] = target: T2, human parathyroid cell calcium receptor (Homo sapiens, UniProt P41180); assay: Cl^- current in Xenopus oocytes expressing cloned human parathyroid calcium receptor; type: cell-based; settings: pHuPCaR 5.2 and 4.0
T2 construct: cRNA injected in Xenopus oocytes
T2 sequence (P41180 20-1078 R990G/E1011Q): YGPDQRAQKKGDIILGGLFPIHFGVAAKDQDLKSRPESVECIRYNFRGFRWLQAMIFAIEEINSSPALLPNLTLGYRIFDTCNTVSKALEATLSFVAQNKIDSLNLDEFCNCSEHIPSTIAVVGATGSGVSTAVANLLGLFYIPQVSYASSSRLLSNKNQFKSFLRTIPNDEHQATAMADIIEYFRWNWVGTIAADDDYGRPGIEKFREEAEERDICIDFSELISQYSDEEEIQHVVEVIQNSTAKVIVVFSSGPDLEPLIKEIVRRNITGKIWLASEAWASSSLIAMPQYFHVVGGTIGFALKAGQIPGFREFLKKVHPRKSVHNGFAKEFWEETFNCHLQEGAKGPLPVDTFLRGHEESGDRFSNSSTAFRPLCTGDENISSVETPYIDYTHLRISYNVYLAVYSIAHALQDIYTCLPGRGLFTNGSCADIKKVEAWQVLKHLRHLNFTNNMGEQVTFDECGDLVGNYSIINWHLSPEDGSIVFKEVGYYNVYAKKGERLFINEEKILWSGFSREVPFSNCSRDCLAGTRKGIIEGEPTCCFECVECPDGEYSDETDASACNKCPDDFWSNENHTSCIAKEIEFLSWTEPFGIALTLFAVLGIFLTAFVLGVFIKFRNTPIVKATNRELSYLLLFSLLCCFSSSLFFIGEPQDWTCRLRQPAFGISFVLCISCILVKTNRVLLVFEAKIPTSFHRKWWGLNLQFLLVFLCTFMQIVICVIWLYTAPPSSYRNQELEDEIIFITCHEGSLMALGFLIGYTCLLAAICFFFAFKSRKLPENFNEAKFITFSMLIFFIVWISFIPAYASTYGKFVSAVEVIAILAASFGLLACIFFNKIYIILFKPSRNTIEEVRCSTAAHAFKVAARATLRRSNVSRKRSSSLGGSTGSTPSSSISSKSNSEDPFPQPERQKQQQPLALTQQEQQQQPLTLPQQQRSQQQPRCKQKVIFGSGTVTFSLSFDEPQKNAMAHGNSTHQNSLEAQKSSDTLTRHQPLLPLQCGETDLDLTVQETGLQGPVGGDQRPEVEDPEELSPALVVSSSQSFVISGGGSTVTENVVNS
Description: Representative cDNA inserts for both size classes were subcloned into the plasmid vector pBluescript SK. Linearization followed by in vitro transcription using T7 RNA polymerase produced cRNA transcripts. The cRNA transcripts were injected into Xenopus oocytes (150 ng/μl RNA; 50 nl/oocyte) for functional analysis. Following incubation periods of 2-4 days, the oocytes were assayed for the presence of functional calcium receptors. Both clone types gave rise to functional calcium receptors as assessed by the stimulation of calcium-activated chloride currents upon addition of appropriate calcium receptor agonists. […] Thus, both clones encode a functional, human parathyroid cell calcium receptor.
Xenopus oocytes were injected with pHuPCaR 5.2, the 5.2 Kb cDNA encoding a parathyroid cell calcium receptor derived from a human parathyroid cell adenoma. (See Example 27.) After two to three days, Cl^- currents were measured in the oocytes using a two-electrode voltage clamp.

[4] = test system: human parathyroid calcium receptor (HuPCaR 5.2); assay: intracellular calcium in HEK293 cells transfected with HuPCaR 5.2; type: cell-based; settings: Ca^2+ 10 mM, Mg^2+ 20 mM
Description: Cells obtained from the pool of hygromycin selected HEK293 cells transfected with Cep4B containing the HuPCaR 5.2 insert were plated on collagen coated Aklar squares which had been placed into individual wells of 12-well tissue culture plates. Two to six days later, medium was removed and the cells washed with balanced salt solution and 1 ml of buffer containing 1 μM fura2-AM, 1 mM CaCl2 and 0.1% BSA and […]. Measurements of fluorescence in response to calcium receptor agonists were performed at 37° C. in a spectrofluorimeter using excitation and emission wavelengths of 340 and 510 nm, respectively. For signal calibration, Fmax was determined after addition of ionomycin (4.0 μM) and the apparent Fmin was determined by addition of 0.3M EGTA, 2.5M Tris-HCl; pH 10.

[5] = serum/blood calcium, PTH, albumin and phosphate in rats, intraperitoneal; type: in vivo, rat; settings: 10 mg/kg i.p., 1 hour, normal diet
Description: Compounds shown to activate the bovine parathyroid cell calcium receptor in vitro were tested for hypocalcemic activity in vivo. […] […] […] Serum total calcium, albumin and phosphate were measured by techniques well known in the art.

[6] = serum ionized Ca^2+ in parathyroidectomized rats; type: in vivo, rat; settings: 10 mg/kg i.p., 6 hours
Source text: To determine the primary target tissue upon which NPS R-467 acts to cause a hypocalcemic response, the parathyroid glands in rats were surgically removed. Animals receiving a total parathyroidectomy become hypocalcemic and are largely dependent upon dietary calcium to maintain serum Ca^2+ homeostasis.

[7] = serum/plasma Ca^2+, PTH and calcitonin in rats, oral; type: in vivo; settings: rat, single oral dose, 3 hours
Source text: Rats (male, Sprague-Dawley, 250-300 g) were fed standard rat chow and fasted overnight prior to the experiment. NPS R-467 was suspended in corn oil and administered as a single oral dose through a gavage needle. Three hours later a sample of blood was taken from the tail vein and assessed for ionized Ca^2+ levels.

COc1cccc([C@@H](C)NCCCc2ccccc2)c1 [NPS R-467, (R)-(+)-N-(3-phenylpropyl)-α-methyl-3-methoxybenzylamine]
[Ca^2+]i response in presence of 0.5 mM extracellular Ca^2+ [1]: rapid and transient increase in [Ca^2+ ]i
[Ca^2+]i response in Ca^2+-free buffer after 10 μM neomycin ([1]; 30 μM NPS R-467): transient increase in [Ca^2+ ]i
[Ca^2+]i response in Ca^2+-free buffer after 100 μM neomycin ([1]; 30 μM NPS R-467): did not cause an increase in [Ca^2+ ]i
[Ca^2+]i response in Ca^2+-free buffer ([1]; no extracellular Ca^2+, NPS R-467 30 μM): abolished; also recorded: no increase in [Ca^2+ ]i
Cl^- current in oocytes [2]: rapid increase
activation of oocyte-expressed human receptor [3]: activated the oocyte-expressed receptor at about the same concentrations
increase in intracellular calcium [4]: Robust increases in intracellular calcium
decrease in serum ionized Ca^2+ from control level [5]: 22%
change in serum ionized Ca^2+ [6]: did not cause any change
reduction in serum ionized Ca^2+ [7]: dose-dependent reduction in serum levels of ionized Ca^2+

From patent publication US5688938A, “Calcium receptor-active molecules” (priority 1995, dated 1997)
